Data from patent publication US9493420B2, “Quinoline derivatives and uses thereof” (Portland State University, priority 2005, dated 2016).

Assays:
[1] = target: T1, recombinant human serotonin (hSERT) transporter (Homo sapiens, UniProt P31645); assay: Inhibition of [3H]neurotransmitter uptake, hSERT; type: cell-based
T1 construct: expressed in transfected cells; host or cells: HEK cells expressing hSERT
Procedure: (§1) Selected RCQs were tested for inhibition of [^3H]neurotransmitter uptake by the recombinant human serotonin (hSERT), dopamine (HEK-hDAT), and norepinephrine (hNET) transporters by a modification of the method of Eshleman et al. (J. Pharmacol. Exp. Ther., 289(2):877-885, 1999). HEK-hDAT, hSERT, and -hNET expressing cells were grown on tissue culture dishes. After removing the medium and washing the plates with Ca^2+-, Mg^2+-free phosphate buffered saline (PBS), fresh medium was added and the plates were placed in a 25° C. water bath for 5 minutes. Cells were gently lifted from the plates and cell clusters separated by trituration. 50 μL aliquots of the suspended cells were added to assay tubes containing drugs and Krebs-HEPES assay buffer in a final volume of 0.5 mL.
(§2) Competition experiments were conducted in triplicate. After a 10 minute preincubation period at 25° C., [^3H]neurotransmitter (20 nM final concentration; [^3H]DA, [^3H]5-HT, or [^3H]NE) were added, and the mixtures incubated for 10 minutes. Reactions were terminated by filtration through Wallac filtermat A filters (presoaked in 0.05% polyethylenimine), using a Tomtec cell harvester. Scintillation fluid was added to each filtered spot, and radioactivity remaining on the filters determined using a Wallac 1205 Betaplate scintillation counter.
(§3) Specific uptake was defined as the difference in uptake observed in the absence and presence of 5 μM mazindol (hDAT and hNET) or 5 μM imipramine (hSERT). Inhibition of uptake was determined by non-linear regression using Prism software.

[2] = target: T2, recombinant human norepinephrine (hNET) transporter (Homo sapiens, UniProt P23975); assay: Inhibition of [3H]neurotransmitter uptake, hNET; type: cell-based
T2 construct: expressed in transfected cells; host or cells: HEK cells expressing hNET
Procedure: as §1, §2, §3

[3] = system: P. chabaudi parasites; assay: 4-day suppressive test in infected mice; type: in vivo; conditions: 64 mg/kg oral gavage once per day for four days; male CF-1 mice; by day 4
Excerpt: Antimalarial compounds can also be tested for efficacy in vivo. One non-limiting exemplary method for performing such testing is the 4-day suppressive test (Peters, Ann. Trop. Med. Parasitol., 69(2):155-171, 1975). Briefly, such test involves collecting P. chabaudi (Mackinnon and Read, Philos. Trans. R. Soc. Lond. B Biol. Sci., 359:965-986, 2004; Mackinnon et al., Exp. Parasitol., 101 (2-3):121-128, 2002) from a donor animal harboring ˜20% parasitemia. Male CF-1 mice at 4-5 weeks of age (˜20 g) are infected with ˜10^7 infected red blood cells via 100 μL tail vein injection and randomly sorted into groups of 4 mice each on day 0. One hour after infection, the mice receive the test agent via oral gavage, or by the intraperitoneal route (at approximately 1-10 times the in vitro IC50 values). Drugs are administered once daily for at least 4 days beginning at day 0. […] Efficacy of a tested compound in this bioassay is measured by inhibition of parasite growth as defined previously. […]
A variation of the 4-day suppressive test described by Peters (Ann. Trop. Med. Parasitol., 69(2):155-171, 1975) was used to test the in vivo effectiveness of RCQ_02 as a treatment for Plasmodium sp. infection. Briefly, P. chabaudi parasites (Mackinnon and Read, Philos. Trans. R. Soc. Lond. B Biol. Sci., 359:965-986, 2004) were collected from a donor animal harboring approximately 20% parasitemia. […]

[4] = Water solubility; type: physicochemical

T2 sequence (P23975 whole entry): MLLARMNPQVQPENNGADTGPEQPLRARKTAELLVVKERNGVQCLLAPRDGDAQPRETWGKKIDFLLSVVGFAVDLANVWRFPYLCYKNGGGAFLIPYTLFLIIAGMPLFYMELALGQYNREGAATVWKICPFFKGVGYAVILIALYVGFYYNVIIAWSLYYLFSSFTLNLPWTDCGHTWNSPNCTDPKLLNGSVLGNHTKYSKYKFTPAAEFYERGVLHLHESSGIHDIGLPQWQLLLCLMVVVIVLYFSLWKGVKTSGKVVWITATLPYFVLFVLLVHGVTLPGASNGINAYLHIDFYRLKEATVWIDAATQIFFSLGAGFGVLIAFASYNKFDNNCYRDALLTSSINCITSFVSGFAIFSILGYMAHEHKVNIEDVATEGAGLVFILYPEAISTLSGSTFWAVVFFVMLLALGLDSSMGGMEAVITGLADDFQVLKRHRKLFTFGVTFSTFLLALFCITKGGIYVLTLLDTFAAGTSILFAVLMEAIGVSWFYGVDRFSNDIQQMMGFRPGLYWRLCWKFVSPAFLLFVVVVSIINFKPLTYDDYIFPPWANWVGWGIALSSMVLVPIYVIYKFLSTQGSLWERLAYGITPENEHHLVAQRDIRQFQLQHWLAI
T1 sequence (P31645 whole entry): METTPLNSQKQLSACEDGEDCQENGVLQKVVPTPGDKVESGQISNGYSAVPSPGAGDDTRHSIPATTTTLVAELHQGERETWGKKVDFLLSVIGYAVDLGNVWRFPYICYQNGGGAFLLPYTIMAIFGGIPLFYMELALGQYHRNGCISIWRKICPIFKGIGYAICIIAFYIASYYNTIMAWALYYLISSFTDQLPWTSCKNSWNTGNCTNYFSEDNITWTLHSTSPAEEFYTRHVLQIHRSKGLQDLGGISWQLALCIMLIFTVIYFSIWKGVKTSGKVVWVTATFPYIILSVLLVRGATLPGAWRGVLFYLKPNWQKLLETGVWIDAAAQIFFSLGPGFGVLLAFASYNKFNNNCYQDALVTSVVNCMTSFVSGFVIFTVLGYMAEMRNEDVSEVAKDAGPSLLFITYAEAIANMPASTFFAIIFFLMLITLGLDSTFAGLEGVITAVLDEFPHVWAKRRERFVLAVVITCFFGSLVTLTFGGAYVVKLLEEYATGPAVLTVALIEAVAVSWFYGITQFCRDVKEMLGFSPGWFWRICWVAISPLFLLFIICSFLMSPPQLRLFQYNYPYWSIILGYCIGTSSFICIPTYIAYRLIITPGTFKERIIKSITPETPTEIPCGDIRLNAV

IC50 [1]: 230 nM
IC50 [2]: 350 nM
water solubility [4]: relatively low water solubility
SMILES: CN(CCCNc1ccnc2cc(Cl)ccc12)CCCN1c2ccccc2CCc2ccccc21 [RCQ_02, N′-(7-Chloro-quinolin-4-yl)-N-[3-(10,11-dihydro-dibenzo[b,f]azepin-5-yl)-propyl]-N-methyl-propane-1,3-diamine]
cleared of parasites [3]: > 99%
